As a reminder, the MIC is the lowest concentration found to suppress growth.

Common to all, as to type: functional
Experiment [1] has as its system Candida tropicalis. Briefly: Antifungal activity against Candida tropicalis Berkout KCCM 50662 after 1 day by twofold broth dilution method. The conditions noted are these: KCCM 50662, 24 h.
For experiment [2], the system named is Pichia kudriavzevii. Briefly: Antifungal activity against Candida krusei Berkout KCCM 11655 after 1 day by twofold broth dilution method. The conditions noted are these: KCCM 11655, 24 h. (In broth dilution the organism is exposed to a series of concentrations in liquid medium.)
Experiment [3] deals with Aspergillus niger. In words: Antifungal activity against Aspergillus niger KCTC 1231 after 2 days by twofold broth dilution method. To be noted: KCTC 1231, 48 h.
Experiment [4] concerns Candida albicans. In words: Antifungal activity against Candida albicans Berkout KCCM 50235 after 1 day by twofold broth dilution method. The conditions noted are these: KCCM 50235, 24 h.
For experiment [5], the system named is Cryptococcus neoformans. In words: Antifungal activity against Cryptococcus neoformans KCCM 50564 after 1 day by twofold broth dilution method. The conditions noted are these: KCCM 50564, 24 h.
Experiment [6] deals with Aspergillus flavus. Briefly: Antifungal activity against Aspergillus flavus KCCM 11899 by twofold broth dilution method.

Molecules are shown by their SMILES. ≈ marks a conversion by molar mass, not a printed value.

As for `CCc1nc2c(o1)C(=O)C(Nc1ccc(Cl)cc1)=C(Br)C2=O`, the MIC in experiment [1] worked out at 25 µg/mL (≈ 65.5 µM); in experiment [2] it was 6.3 µg/mL (≈ 16.5 µM); in experiment [3], 3.2 µg/mL (≈ 8.39 µM); in experiment [4], 6.3 µg/mL (≈ 16.5 µM); in experiment [5] it was 6.3 µg/mL (≈ 16.5 µM); in experiment [6], 3.2 µg/mL (≈ 8.39 µM).
Take `CCc1nc2c(o1)C(=O)C(Sc1ccc(C)c(C)c1)=C(Sc1ccc(C)c(C)c1)C2=O`: the MIC in experiment [1] turned out to be 12.5 µg/mL (≈ 27.8 µM); in experiment [2], 3.2 µg/mL (≈ 7.12 µM); in experiment [3] it was 12.5 µg/mL (≈ 27.8 µM); in experiment [4] it was 25 µg/mL (≈ 55.6 µM); in experiment [5], 12.5 µg/mL (≈ 27.8 µM); in experiment [6], 6.3 µg/mL (≈ 14 µM).
As for `CCc1nc2c(o1)C(=O)C(Nc1ccc(O)cc1)=C(Br)C2=O`, the MIC in experiment [1] was 12.5 µg/mL (≈ 34.4 µM); in experiment [2], 25 µg/mL (≈ 68.8 µM); in experiment [3] it was 50 µg/mL (≈ 138 µM); in experiment [4], 50 µg/mL (≈ 138 µM); in experiment [5], 12.5 µg/mL (≈ 34.4 µM); in experiment [6] it was 25 µg/mL (≈ 68.8 µM).
Regarding `CCc1nc2c(o1)C(=O)C(Nc1cccc(C#N)c1)=C(Br)C2=O`, the MIC in experiment [1] was 6.3 µg/mL (≈ 16.9 µM); in experiment [2], 50 µg/mL (≈ 134 µM); in experiment [3], 12.5 µg/mL (≈ 33.6 µM); in experiment [4], 12.5 µg/mL (≈ 33.6 µM); in experiment [5], 12.5 µg/mL (≈ 33.6 µM); in experiment [6], 6.3 µg/mL (≈ 16.9 µM).
Turning to `CCc1nc2c(o1)C(=O)C(Nc1ccc(F)cc1)=C(Br)C2=O`, the MIC in experiment [1] amounted to 6.3 µg/mL (≈ 17.3 µM); in experiment [2], 6.3 µg/mL (≈ 17.3 µM); in experiment [3] it was 6.3 µg/mL (≈ 17.3 µM); in experiment [4] it was 12.5 µg/mL (≈ 34.2 µM); in experiment [5] it was 6.3 µg/mL (≈ 17.3 µM); in experiment [6], 3.2 µg/mL (≈ 8.76 µM).
With `CCc1nc2c(o1)C(=O)C(Nc1ccc([N+](=O)[O-])cc1)=C(Br)C2=O`, the minimum inhibitory concentration (MIC) was 50 µg/mL (≈ 127 µM) in experiment [1]; 50 µg/mL (≈ 127 µM) in experiment [2]; 25 µg/mL (≈ 63.7 µM) in experiment [3]; 50 µg/mL (≈ 127 µM) in experiment [4]; 25 µg/mL (≈ 63.7 µM) in experiment [5]; 25 µg/mL (≈ 63.7 µM) in experiment [6].
For the compound `CCc1nc2c(o1)C(=O)C(Sc1ccccc1)=C(Sc1ccccc1)C2=O`, the MIC in experiment [1], in experiment [2], in experiment [3], in experiment [4], in experiment [5] and in experiment [6] was 12.5 µg/mL (≈ 31.8 µM) in each case.
In the case of `CCc1nc2c(N)cccc2o1`, the MIC is 50 µg/mL (≈ 308 µM) in experiment [1]; 100 µg/mL (≈ 617 µM) in experiment [2]; over 100 µg/mL in experiment [3]; over 100 µg/mL in experiment [4]; 100 µg/mL (≈ 617 µM) in experiment [5]; over 100 µg/mL in experiment [6].
On to `CCc1nc2c(o1)C(=O)C(Nc1ccc(I)cc1)=C(Br)C2=O`, for which the MIC in experiment [1] worked out at 6.3 µg/mL (≈ 13.3 µM); in experiment [2] it was 3.2 µg/mL (≈ 6.76 µM); in experiment [3], 6.3 µg/mL (≈ 13.3 µM); in experiment [4] it was 6.3 µg/mL (≈ 13.3 µM); in experiment [5], 3.2 µg/mL (≈ 6.76 µM); in experiment [6] it was 3.2 µg/mL (≈ 6.76 µM).
Take `CCc1nc2c(o1)C(=O)C(Sc1ccc(CC)c(CC)c1)=C(Sc1ccc(CC)c(CC)c1)C2=O`: the MIC in experiment [1] was 25 µg/mL (≈ 49.4 µM); in experiment [2] it was 50 µg/mL (≈ 98.9 µM); in experiment [3], 25 µg/mL (≈ 49.4 µM); in experiment [4], 12.5 µg/mL (≈ 24.7 µM); in experiment [5], 25 µg/mL (≈ 49.4 µM); in experiment [6], 25 µg/mL (≈ 49.4 µM).
As to `CCc1nc2c(o1)C(=O)C(Nc1ccc(C#N)cc1)=C(Br)C2=O`, the MIC in experiment [1] was found to be 50 µg/mL (≈ 134 µM); in experiment [2] it was 50 µg/mL (≈ 134 µM); in experiment [3] it was 25 µg/mL (≈ 67.2 µM); in experiment [4], 50 µg/mL (≈ 134 µM); in experiment [5], 25 µg/mL (≈ 67.2 µM); in experiment [6], 25 µg/mL (≈ 67.2 µM).
Turning to `CCc1nc2c(o1)C(=O)C(Nc1cccc(O)c1)=C(Br)C2=O`, the minimal inhibitory concentration (MIC) in experiment [1] worked out at 6.3 µg/mL (≈ 17.3 µM); in experiment [2] it was 25 µg/mL (≈ 68.8 µM); in experiment [3], 50 µg/mL (≈ 138 µM); in experiment [4], 50 µg/mL (≈ 138 µM); in experiment [5], 25 µg/mL (≈ 68.8 µM); in experiment [6] it was 25 µg/mL (≈ 68.8 µM).
As for `CCc1nc2c(o1)C(=O)C(Nc1ccccc1)=C(Br)C2=O`, the MIC in experiment [1] was determined as 3.2 µg/mL (≈ 9.22 µM); in experiment [2], 3.2 µg/mL (≈ 9.22 µM); in experiment [3], 1.6 µg/mL (≈ 4.61 µM); in experiment [4], 1.6 µg/mL (≈ 4.61 µM); in experiment [5], 1.6 µg/mL (≈ 4.61 µM); in experiment [6], 3.2 µg/mL (≈ 9.22 µM).
On to `CCc1nc2c(o1)C(=O)C(Nc1ccc(Br)cc1)=C(Br)C2=O`, for which the MIC was determined as 3.2 µg/mL (≈ 7.51 µM) in experiment [1]; 3.2 µg/mL (≈ 7.51 µM) in experiment [2]; 0.8 µg/mL (≈ 1.88 µM) in experiment [3]; 0.8 µg/mL (≈ 1.88 µM) in experiment [4]; 1.6 µg/mL (≈ 3.76 µM) in experiment [5]; 1.6 µg/mL (≈ 3.76 µM) in experiment [6].
On to `CCc1nc2c(o1)C(=O)C(Nc1cccc(Cl)c1)=C(Br)C2=O`, for which the MIC in experiment [1] amounted to 6.3 µg/mL (≈ 16.5 µM); in experiment [2], 6.3 µg/mL (≈ 16.5 µM); in experiment [3], 3.2 µg/mL (≈ 8.39 µM); in experiment [4] it was 6.3 µg/mL (≈ 16.5 µM); in experiment [5] it was 3.2 µg/mL (≈ 8.39 µM); in experiment [6], 3.2 µg/mL (≈ 8.39 µM).
In the case of `CCc1nc2c(o1)C(=O)C(Nc1ccc(OC)cc1)=C(Br)C2=O`, the MIC worked out at 12.5 µg/mL (≈ 33.1 µM) in experiment [1]; 1.6 µg/mL (≈ 4.24 µM) in experiment [2]; 3.2 µg/mL (≈ 8.48 µM) in experiment [3]; 6.35 µg/mL (≈ 16.8 µM) in experiment [4]; 3.2 µg/mL (≈ 8.48 µM) in experiment [5]; 6.3 µg/mL (≈ 16.7 µM) in experiment [6].
As for `CCc1nc2c(o1)C(=O)C(Sc1ccc(Br)c(Br)c1)=C(Sc1ccc(Br)c(Br)c1)C2=O`, the MIC in experiment [1] came to 50 µg/mL (≈ 70.5 µM); in experiment [2] it was 12.5 µg/mL (≈ 17.6 µM); in experiment [3] it was 25 µg/mL (≈ 35.3 µM); in experiment [4] it was 50 µg/mL (≈ 70.5 µM); in experiment [5], 12.5 µg/mL (≈ 17.6 µM); in experiment [6] it was 25 µg/mL (≈ 35.3 µM).
In the case of `CCc1nc2c(o1)C(=O)C(Nc1cccc(F)c1)=C(Br)C2=O`, the MIC in experiment [1] stood at 3.2 µg/mL (≈ 8.76 µM); in experiment [2], 6.3 µg/mL (≈ 17.3 µM); in experiment [3], 6.3 µg/mL (≈ 17.3 µM); in experiment [4], 12.5 µg/mL (≈ 34.2 µM); in experiment [5], 6.3 µg/mL (≈ 17.3 µM); in experiment [6] it was 6.3 µg/mL (≈ 17.3 µM).
For the compound `Nc1nc(=O)[nH]cc1F` [FLUCYTOSINE], the MIC in experiment [1] was found to be 3.2 µg/mL (≈ 24.8 µM); in experiment [2] it was 3.2 µg/mL (≈ 24.8 µM); in experiment [3], 1.6 µg/mL (≈ 12.4 µM); in experiment [4], 3.2 µg/mL (≈ 24.8 µM); in experiment [5] it was 3.2 µg/mL (≈ 24.8 µM); in experiment [6], 1.6 µg/mL (≈ 12.4 µM).
